Legend:
[1] = biological target: T1, endogenous human UII receptor (Homo sapiens, UniProt Q9UKP6); test: Human Radioligand Binding Assay ((^125I)-U-II binding to human skeletal muscle myoblasts)
T1 sequence (Q9UKP6 1-389): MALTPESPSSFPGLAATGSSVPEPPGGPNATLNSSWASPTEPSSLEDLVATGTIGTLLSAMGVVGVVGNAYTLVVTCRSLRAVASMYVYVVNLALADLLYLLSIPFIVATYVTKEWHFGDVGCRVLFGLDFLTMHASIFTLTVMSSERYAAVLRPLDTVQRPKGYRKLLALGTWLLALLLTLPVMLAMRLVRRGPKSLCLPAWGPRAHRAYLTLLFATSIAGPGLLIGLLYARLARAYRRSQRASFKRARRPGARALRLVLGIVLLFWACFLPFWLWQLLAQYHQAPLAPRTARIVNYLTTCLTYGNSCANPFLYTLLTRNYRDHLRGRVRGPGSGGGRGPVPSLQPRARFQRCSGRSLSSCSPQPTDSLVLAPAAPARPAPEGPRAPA

[2] = biological target: T2, rat GPR14 (U-II receptor) (Rattus norvegicus, UniProt P49684); test: Rat UII Calcium Mobilization FLIPR Assay; assay type: cell-based; details: average value for the compound tested; read-out: Rat UII FLIPR Average IC50
T2 construct: expressed in transfected cells
T2 sequence (P49684 1-386): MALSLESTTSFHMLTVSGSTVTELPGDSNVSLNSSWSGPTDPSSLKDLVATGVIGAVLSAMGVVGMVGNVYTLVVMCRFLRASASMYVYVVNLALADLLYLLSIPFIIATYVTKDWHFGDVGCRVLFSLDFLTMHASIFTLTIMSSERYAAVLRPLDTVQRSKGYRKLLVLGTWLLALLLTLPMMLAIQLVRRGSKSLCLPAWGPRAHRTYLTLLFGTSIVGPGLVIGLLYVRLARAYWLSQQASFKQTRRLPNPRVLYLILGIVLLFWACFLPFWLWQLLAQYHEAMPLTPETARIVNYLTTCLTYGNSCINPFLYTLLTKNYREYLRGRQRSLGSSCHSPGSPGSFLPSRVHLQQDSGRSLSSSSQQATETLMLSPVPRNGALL
How it was run: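 Fluorescent calcium signals were recorded at room temperature (23° C) by FLIPR. Stable rat U-II receptor CHO lines had been dye-loaded for 1 h at 37° C in pH 7.4 HBSS containing 20 mM HEPES, 0.1% BSA and 2.5 mM probenecid.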

[3] = biological target: T3, Human UII receptor, 6D9 human rhabdomyosarcoma cells (Homo sapiens, UniProt Q9UKP6); test: Human UII Calcium Mobilization Assay; assay type: cell-based; details: average value, FLIPR TETRA, read-out: Human UII Ca^+ Mobilization Average IC50
T3 construct: 6D9: isolated by dilution subcloning of RMS13 cells, ATCC® Number: CRL-2061; host or cells: 6D9 human rhabdomyosarcoma cells (subclone of RMS13)
T3 sequence (Q9UKP6 1-389): T1 sequence (Q9UKP6 1-389)
How it was run: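 FLIPR calcium responses were recorded for 4 minutes after room-temperature addition of test antagonist and U-II, in dye-loaded human 6D9 cells (37° C, 45 min; HBSS/HEPES with probenecid 1.25 mM). Compounds serially diluted in HBSS/HEPES, up to 0.1% DMSO; curves gave IC50 and EC50.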

[4] = test system: isolated arterial rings of rats; details: read-out: EC50 of contraction; cited from earlier work
[5] = test system: isolated arterial rings of humans; details: read-out: EC50 of contraction; cited from earlier work
[6] = biological target: T2, rat GPR14 (U-II receptor); details: agonist peptide, CHO cells transfected with rat GPR14; read-out: FLIPR EC50; cited from earlier work
rU-II receptor = biological target: T4, rU-II receptor (Rattus norvegicus, UniProt P49684); details: agonist peptide; cited from earlier work
T4 sequence (P49684 1-386): T2 sequence (P49684 1-386)

COc1ccc([C@@H](CCNS(=O)(=O)Cc2ccccc2)N2C(=O)c3cccc(N4CCN([C@H](C)c5ccccc5)CC4)c3C2=O)cc1OC [Cpd 222, (R)-N-(3-(3,4-dimethoxy-phenyl)-3-{1,3-dioxo-4-[4-(1R)-(1-phenyl-ethyl)-piperazin-1-yl]-1,3-dihydro-isoindol-2-yl}-propyl)-C-phenyl-methanesulfonamide]
Ki [1]: 140 nM | IC50 [2]: 25 nM | IC50 [3]: 1500 nM

COc1ccc([C@@H](CCNS(=O)(=O)c2c(C)n[nH]c2C)N2C(=O)c3cccc(N4CCN([C@H](C)c5ccccc5)CC4)c3C2=O)cc1OC [Cpd 223, (R)-3,5-dimethyl-1H-pyrazole-4-sulfonic acid (3-(3,4-dimethoxy-phenyl)-3-{1,3-dioxo-4-[4-(1R)-(1-phenyl-ethyl)-piperazin-1-yl]-1,3-dihydro-isoindol-2-yl}-propyl)-amide]
Ki [1]: 120 nM | IC50 [2]: 12 nM | IC50 [3]: 240 nM

COc1ccc([C@@H](CCCNS(=O)(=O)c2cccs2)N2C(=O)c3cccc(OCCCN(C)C)c3C2=O)cc1OC [Cpd 224, (R)-thiophene-2-sulfonic acid {4-(3,4-dimethoxy-phenyl)-4-[4-(3-dimethylamino-propoxy)-1,3-dioxo-1,3-dihydro-isoindol-2-yl]-butyl}-amide]
Ki [1]: > 300 nM | IC50 [2]: 340 nM | IC50 [3]: 2000 nM

COc1cc(Br)c(CN2C(=O)c3cccc(N4CCN([C@H](C)c5ccccc5)CC4)c3C2=O)cc1OC [Cpd 225, 2-(2-bromo-4,5-dimethoxy-benzyl)-4-[4-(1R)-(1-phenyl-ethyl)-piperazin-1-yl]-isoindole-1,3-dione]
Ki [1]: > 300 nM | IC50 [2]: 1500 nM | IC50 [3]: > 10000 nM

COc1ccc(CN2C(=O)c3ccc(N4CCN([C@H](C)c5ccccc5)CC4)cc3C2=O)cc1OC [Cpd 226, 2-(3,4-dimethoxy-benzyl)-5-[4-(1R)-(1-phenyl-ethyl)-piperazin-1-yl]-isoindole-1,3-dione]
Ki [1]: > 300 nM | IC50 [2]: 10000 nM | IC50 [3]: > 10000 nM

CCN1CCN(c2cccc3c2C(=O)N([C@H](CCCOCc2c(F)cccc2F)c2ccc(OC)c(OC)c2)C3=O)CC1 [Cpd 227, (R)-2-[4-(2,6-difluoro-benzyloxy)-1-(3,4-dimethoxy-phenyl)-butyl]-4-(4-ethyl-piperazin-1-yl)-isoindole-1,3-dione]
Ki [1]: > 300 nM | IC50 [2]: 160 nM | IC50 [3]: 2900 nM

COc1ccc([C@@H](CCCN(C)S(=O)(=O)O)N2C(=O)c3cccc(N4CCN([C@H](C)c5ccccc5)CC4)c3C2=O)cc1OC [Cpd 228, (R)-(4-(3,4-dimethoxy-phenyl)-4-{1,3-dioxo-4-[4-(1R)-(1-phenyl-ethyl)-piperazin-1-yl]-1,3-dihydro-isoindol-2-yl}-butyl)-methyl-sulfamic acid]
Ki [1]: 25 nM | IC50 [2]: 49 nM | IC50 [3]: 780 nM

COc1ccc([C@@H](CCCNS(=O)(=O)c2cccs2)N2C(=O)c3cccc(OCCN(C)C)c3C2=O)cc1OC [Cpd 229, (R)-thiophene-2-sulfonic acid {4-(3,4-dimethoxy-phenyl)-4-[4-(2-dimethylamino-ethoxy)-1,3-dioxo-1,3-dihydro-isoindol-2-yl]-butyl}-amide]
Ki [1]: 320 nM | IC50 [2]: > 100 nM | IC50 [3]: 1700 nM

CCN1CCN(c2cccc3c2C(=O)N(C(c2cccc(NCc4ccccc4)c2)c2ccc(OC)c(OC)c2)C3=O)CC1 (stereo not shown) [Cpd 230, 2-[(3-benzylamino-phenyl)-(3,4-dimethoxy-phenyl)-methyl]-4-(4-ethyl-piperazin-1-yl)-isoindole-1,3-dione]
Ki [1]: > 300 nM | IC50 [2]: 290 nM | IC50 [3]: 1900 nM

CCN1CCN(c2cccc3c2C(=O)N(C(c2cccc(NS(=O)(=O)O)c2)c2ccc(OC)c(OC)c2)C3=O)CC1 (stereo not shown) [Cpd 231, (3-{(3,4-dimethoxy-phenyl)-[4-(4-ethyl-piperazin-1-yl)-1,3-dioxo-1,3-dihydro-isoindol-2-yl]-methyl}-phenyl)-sulfamic acid]
Ki [1]: 511 nM | IC50 [2]: 680 nM | IC50 [3]: 3400 nM

CCN1CCN(c2cccc3c2C(=O)N(C(CC2CCN(Cc4ccccc4)CC2)c2ccc(OC)c(OC)c2)C3=O)CC1 (stereo not shown) [Cpd 232, 2-[2-(1-benzyl-piperidin-4-yl)-1-(3,4-dimethoxy-phenyl)-ethyl]-4-(4-ethyl-piperazin-1-yl)-isoindole-1,3-dione]
Ki [1]: > 300 nM | IC50 [2]: 410 nM | IC50 [3]: 4100 nM

CCN1CCN(c2cccc3c2C(=O)N(C(CC2CCN(S(=O)(=O)O)CC2)c2ccc(OC)c(OC)c2)C3=O)CC1 (stereo not shown) [Cpd 233, 4-{2-(3,4-dimethoxy-phenyl)-2-[4-(4-ethyl-piperazin-1-yl)-1,3-dioxo-1,3-dihydro-isoindol-2-yl]-ethyl}-piperidine-1-sulfonic acid]
Ki [1]: 57 nM | IC50 [2]: 660 nM | IC50 [3]: 770 nM

CCN1CCN(c2cccc3c2C(=O)N(C(CC2CCN(S(=O)(=O)c4cccs4)CC2)c2ccc(OC)c(OC)c2)C3=O)CC1 (stereo not shown) [Cpd 234, 2-{1-(3,4-dimethoxy-phenyl)-2-[1-(thiophene-2-sulfonyl)-piperidin-4-yl]-ethyl}-4-(4-ethyl-piperazin-1-yl)-isoindole-1,3-dione]
Ki [1]: 280 nM | IC50 [2]: 51 nM | IC50 [3]: 1700 nM

AGTAD-cyclo(CFWKYC)—V [Goby U-II, Urotensin-II isolated from the urophysis of the goby fish (Gillichthys mirabilis) as a 12-mer]
EC50 [4]: < 1 nM | EC50 [5]: < 1 nM

Acetyl-cyclic[Cys-Phe-Trp-Lys-(2-Nal)-Cys]-NH2 [(Ac)—CFWK(2-NaI)C—NH2, agonist cyclic peptide used at 1 nM to induce Ca2+ mobilization in the rat UII FLIPR assay]
EC50 [6]: 0.54 ± 0.2 nM | Ki (rU-II receptor): 0.12 ± 0.05 nM
